Reference: patent publication EP1127890A1, “Steroid derivatives with an additional ring annulated to ring A and use of these derivatives for the preparation of meiosis regulating medicaments” (SCHERING AKTIENGESELLSCHAFT, priority 2000, dated 2001)
Values joined by “and” are separate entries in the source; they are usually repeats but may differ in a detail not shown here. Equal values may be shown once.

Columns and labels:
naked mouse oocytes [1] = assay: Test of meiosis-inhibiting substances in the oocyte test (co-culture with FF-MAS in Hx-medium); type: cell-based; conditions: for Oocytes [n] GV: number of oocytes with germinal vesicle; for Oocytes [n] GVB: number of oocytes with germinal vesicle breakdown; for Oocytes [n] PB: number of oocytes with polar bodies
Description: Oocytes were obtained from immature female mice (C57BI/6J × DBA/2J F1-hybrids, Bomholtgaard, Denmark) weighing 13 - 16 grams, that were kept under controlled lighting and temperature. The mice received an intra-peritoneal injection of 0.2 ml gonadotropins (Gonal F, Serono, Solna, Sweden , containing 20 IU FSH, alternatively, Puregon, Organon, Swords, Ireland containing 20 IU FSH) and 48 hours later the animals were killed by cervical dislocation. The ovaries were dissected out and the oocytes were isolated in Hx-medium (see below) under a stereo microscope by manual rupture of the follicles using a pair of 27 gauge needles. Spherical, naked oocytes (NO) displaying an intact germinal vesicle (GV) were placed in α-minimum essential medium (α-MEM without ribonucleosides, Gibco BRL, Cat.No. 22561) supplemented with 3 mM hypoxanthine (Sigma Cat. No. H-9377), 8 mg/ml Human Serum Albumin (HSA, State Serum Institute, Denmark), 0,23 mM pyrubate (Sigma, Cat. No. S-8636), 2 mM glutamine (Flow Cat. No. 16-801), 100 IU/ml penicillin and 100 µg/ml streptomycin (Flow, Cat No. 16-700). This medium was designated Hx-medium. The oocytes were rinsed three times in Hx-medium and cultured in 4-well multidishes (Nuncion, Denmark) in which each well contained 0.4 ml of Hx-medium and 30 - 40 oocytes. One control (i.e. 30 - 40 oocytes cultured in Hx-medium with no addition of test compound) was always run simultaneously with the test cultures, which were made with different concentrations of the compounds to be tested. The cultures were performed at 37 °C and 100 % humidity with 5 % CO2 in air. The culture time was 22 - 24 hours. Germinal vesicle (GV) oocytes were obtained from immature FSH treated female mice using the same methods as described in Example 1 (see above). Naked oocytes (NO) were rinsed three times in Hx-medium. […] NO were cultured in Hx-medium supplemented with 5 µM FF-MAS in co-culture with the test compounds in different concentrations in 4-well multidishes (Nunclon, Denmark) in which each well contained 0.4 ml of Hx-medium and 30 - 40 oocytes. One positive control (i.e., 30 - 40 oocytes cultured in Hx-medium containing FF-MAS with no addition of test compound) was always run simultaneously with the test cultures, which were supplemented with different concentrations of the compounds to be tested. In addition, one negative control ( 30 - 40 oocytes cultured in Hx-medium alone) was run simultaneously with the positive control. By the end of the culture period, the number of oocytes with germinal vesicle (GV) or germinal vesicle breakdown (GVB) and those with polar body (PB) was counted using a stereo microscope or an inverted microscope with differential interference contrast equipment. The percentage of oocytes with GVB + PB per total number of oocytes were calculated in the test cultures and in the control (positive and negative) culture groups. The relative inhibition of the test compound was calculated by the following formula: inhibition test compound (%) = 100% - [(GVB+PB (test compound) - GVB+PB (negative control)) x 100 / GVB+PB(positive control) - GVB+PB (negative control)] % [formula] Oocytes arrested in meiosis are characterised by an intact nucleus with a prominent nucleolus, known as germinal vesicle (GV). Upon reinitiation of meiosis the nucleolus and the nuclear envelope disappear and this is characterised by a breakdown of the GV, which than is called germinal vesicle breakdown (GVB). Some hours later the oocyte complete a reductional division and elicit the first so called polar body (PB).

naked mouse oocytes [2] = assay: Testing of meiosis-activating substances in the oocyte test (Hx-medium); type: cell-based; conditions: 10 µM in Hx-medium
Description: Oocytes were obtained from immature female mice (C57BI/6J × DBA/2J F1-hybrids, Bomholtgaard, Denmark) weighing 13 - 16 grams, that were kept under controlled lighting and temperature. The mice received an intra-peritoneal injection of 0.2 ml gonadotropins (Gonal F, Serono, Solna, Sweden , containing 20 IU FSH, alternatively, Puregon, Organon, Swords, Ireland containing 20 IU FSH) and 48 hours later the animals were killed by cervical dislocation.
The ovaries were dissected out and the oocytes were isolated in Hx-medium (see below) under a stereo microscope by manual rupture of the follicles using a pair of 27 gauge needles. Spherical, naked oocytes (NO) displaying an intact germinal vesicle (GV) were placed in α-minimum essential medium (α-MEM without ribonucleosides, Gibco BRL, Cat.No. 22561) supplemented with 3 mM hypoxanthine (Sigma Cat. No. H-9377), 8 mg/ml Human Serum Albumin (HSA, State Serum Institute, Denmark), 0,23 mM pyrubate (Sigma, Cat. No. S-8636), 2 mM glutamine (Flow Cat. No. 16-801), 100 IU/ml penicillin and 100 µg/ml streptomycin (Flow, Cat No. 16-700). This medium was designated Hx-medium. The oocytes were rinsed three times in Hx-medium and cultured in 4-well multidishes (Nuncion, Denmark) in which each well contained 0.4 ml of Hx-medium and 30 - 40 oocytes. One control (i.e. 30 - 40 oocytes cultured in Hx-medium with no addition of test compound) was always run simultaneously with the test cultures, which were made with different concentrations of the compounds to be tested. The cultures were performed at 37 °C and 100 % humidity with 5 % CO2 in air. The culture time was 22 - 24 hours.
By the end of the culture period, the number of oocytes with germinal vesicle (GV) or germinal vesicle breakdown (GVB) and those with polar body (PB) was counted using a stereo microscope or an inverted microscope with differential interference contrast equipment. The percentage of oocytes with GVB per total number of oocytes and the percentage of oocytes with PB per total number of oocytes was calculated in the test cultures and compared to the control culture.
Oocytes arrested in meiosis are characterised by an intact nucleus with a prominent nucleolus, known as germinal vesicle (GV). Upon reinitiation of meiosis the nucleolus and the nuclear envelope disappear and this is characterised by a breakdown of the GV, which than is called germinal vesicle breakdown (GVB). Some hours later the oocyte complete a reductional division and elicit the first so called polar body (PB).

[3] = 5µM FF-MAS + 10 µM test compound in Hx-medium
[4] = 5µM FF-MAS + 10 µM test compound in Hx-medium, relative inhibition of meiosis
[5] = 5µM FF-MAS alone in Hx-medium (positive control)

SMILES	Oocytes [n] GV (naked mouse oocytes [1]; [3])	Oocytes [n] GVB (naked mouse oocytes [1]; [3])	Oocytes [n] PB (naked mouse oocytes [1]; [3])	Inhibition [%] (naked mouse oocytes [1]; [4])	Oocytes [n] GV (naked mouse oocytes [1]; [5])	Oocytes [n] GVB (naked mouse oocytes [1]; [5])	inhibition at 5 µM (naked mouse oocytes [1]; Mus musculus, Oocyte, 5µM FF-MAS alone in Hx-medium (positive control), relative inhibition of meiosis)	Oocytes [n] GV (naked mouse oocytes [2])	Oocytes [n] GVB (naked mouse oocytes [2])	Oocytes [n] PB (naked mouse oocytes [2])	activation at 10 µM (naked mouse oocytes [2]; Mus musculus, Oocyte, read-out: Activation [%] GVB+PB)
CC(C)CCC[C@@H](C)[C@H]1CC[C@H]2C3=C(CC[C@]12C)[C@@]1(C)CC[C@@]2(OCCO)C[C@]1(CC3)[C@H](C)O2 [Example 5, 2-[(4aα-methyl-4a-homo-3α,5-methano-4-oxa-5α-cholest-8-en-3β-yl)oxy]ethanol]	30 n	0 n	0 n	100%	–	–	–	–	–	–	–
CC(C)=CCO[C@H]1CC[C@H]2[C@@H]3CC[C@]45C[C@H](CC[C@]4(C)[C@H]3CC[C@]12C)OC5=O [Example 12, 17β-(prenyloxy)-5β-androstane-5,3β-carbolactone]	24 n	9 n	1 n	84%	–	–	–	–	–	–	–
CC(C)=CCC[C@@H](C)[C@H]1CC=C2C3=C(CC[C@@]21C)[C@@]1(C)CC[C@H](O)C(C)(C)[C@@H]1CC3 [FF-MAS, 4,4-Dimethylcholest-B, 14,24-trien-3β-ol]	–	–	–	–	4 n and 8 n	16 n and 25 n	0%	6 n	31 n	2 n	85%
